Patent US7993824B2, “Compositions and methods for determining the susceptibility of a pathogenic virus to protease inhibitors” (Monogram Biosciences, Inc., priority 2002, dated 2011)

Columns and labels:
[1] = tested on: HIV-1 from the patient sample; test: PHENOSENSE HIV phenotypic susceptibility assay on patient plasma samples (IC50 fold change vs NL4-3 reference); assay type: cell-based; conditions: for fold change in IC50: patient sample with L10I, I13V, E35D, M36I, R41K, I50V, L63P, A71V, N88N/S, L90M in HIV protease, vs NL4-3 reference
Method: In a preferred embodiment, the phenotypic analysis is performed using PHENOSENSE™ (ViroLogic Inc., South San Francisco, Calif.). See Petropoulos et al., 2000, Antimicrob. Agents Chemother. 44:920-928; U.S. Pat. Nos. 5,837,464 and 6,242,187. PHENOSENSE™ is a phenotypic assay that achieves the benefits of phenotypic testing and overcomes the drawbacks of previous assays. Because the assay has been automated, PHENOSENSE™ offers higher throughput under controlled conditions. The result is an assay that accurately defines the susceptibility profile of a patient's HIV isolates to all currently available antiretroviral drugs, and delivers results directly to the physician within about 10 to about 15 days of sample receipt. PHENOSENSE™ is accurate and can obtain results with only one round of viral replication, thereby avoiding selection of subpopulations of virus. The results are quantitative, measuring varying degrees of drug susceptibility, and sensitive—the test can be performed on blood specimens with a viral load of about 500 copies/mL and can detect minority populations of some drug-resistant virus at concentrations of 10% or less of total viral population. Furthermore, the results are reproducible and can vary by less than about 1.4-2.5 fold, depending on the drug, in about 95% of the assays performed.
PHENOSENSE™ can be used with nucleic acids from amplified viral gene sequences. As discussed in Section 5.4.1, the sample containing the virus may be a sample from a human or an animal infected with the virus or a sample from a culture of viral cells. In one embodiment, the viral sample comprises a genetically modified laboratory strain.
(§1) A resistance test vector (“RTV”) can then be constructed by incorporating the amplified viral gene sequences into a replication defective viral vector by using any method known in the art of incorporating gene sequences into a vector. In one embodiment, restrictions enzymes and conventional cloning methods are used. See Sambrook et al., 2001, Molecular Cloning: A Laboratory Manual, Cold Spring Harbor Laboratory, 3rd ed., NY; and Ausubel et al., 1989, Current Protocols in Molecular Biology, Greene Publishing Associates and Wiley Interscience, NY. In a preferred embodiment, ApaI and PinAI restriction enzymes are used. Preferably, the replication defective viral vector is the indicator gene viral vector (“IGVV”). In a preferred embodiment, the viral vector contains a means for detecting replication of the RTV. Preferably, the viral vector contains a luciferase expression cassette.
(§2) The assay can be performed by first co-transfecting host cells with RTV DNA and a plasmid that expresses the envelope proteins of another retrovirus, for example, amphotropic murine leukemia virus (MLV). Following transfection, virus particles can be harvested and used to infect fresh target cells. The completion of a single round of viral replication can be detected by the means for detecting replication contained in the vector. In a preferred embodiment, the completion of a single round of viral replication results in the production of luciferase. Serial concentrations of anti-viral agents can be added at either the transfection step or the infection step.
(§3) Susceptibility to the anti-viral agent can be measured by comparing the replication of the vector in the presence and absence of the anti-viral agent. For example, susceptibility to the anti-viral agent can be measured by comparing the luciferase activity in the presence and absence of the anti-viral agent. Susceptible viruses would produce low levels of luciferase activity in the presence of antiviral agents, whereas viruses with reduced susceptibility would produce higher levels of luciferase activity.
The phenotypic assay was conducted using the PHENOSENSE™ (Virologic, South San Francisco, Calif.) HIV assay (Petropoulos et al., 2000, Antimicrob. Agents Chemother. 44:920-928; U.S. Pat. Nos. 5,837,464 and 6,242,187). […]

[2] = tested on: HIV-1 clones containing I50V; test: PhenoSense assay on protease clones (I50V; I50V+L90M; I50V+N88S) isolated from resistance test vector pools of one patient sample; assay type: cell-based; conditions: for mean fold change (FC), reduction in susceptibility: clones with I50V only, or I50V plus L90M
Source text: Drug names are abbreviated as follows: APV, amprenavir; IDV, indinavir; LPV, lopinavir; NFV, nelfinavir; RTV, ritonavir; SQV, saquinavir; ATV, atazanavir (BMS 232632).
as §1, §2, §3
Clones from the population were selected so as to isolate some clones with the N88S mutation and some without it. Resistance test vector pools constructed from the original plasma sample (Petropoulos et al., 2000, Antimicrob Agents Chemother 44:920-8) were transformed into E. Coli, and plasmid DNA from individual colonies was screened in the PhenoSense® assay for […].

[3] = tested on: HIV; conditions: patients using amprenavir as their first PI; as low as; cited from earlier work
[4] = I50V+N88S clones vs I50V clones

SMILES | fold change in IC50 [1] [fold] | mean fold change (FC), reduction in susceptibility [2] | also measured
CC(C)CN(C[C@@H](O)[C@H](Cc1ccccc1)NC(=O)O[C@H]1CCOC1)S(=O)(=O)c1ccc(N)cc1 [amprenavir] | 4.1 | 13-17 FC | 99th percentile for the distribution of FC in genotypically wild-type viruses ([1]; genotypically wild-type viruses, PhenoSense Assay): 2.1 fold; fold change for a virus containing I50V, but not N88S ([2]; FIG. 7 bar 1 for APV): about 17 fold; fold change when the virus contained N88S in addition to I50V ([2]; FIG. 7 bar 2 for APV, wild type level): 1.2 FC; factor by which susceptibility was increased when N88S was present in combination with I50V [2, 4]: 14.5; reductions in susceptibility in patients who experienced viral load rebound [3]: 2-3 fold
COC(=O)N[C@H](C(=O)N[C@@H](Cc1ccccc1)[C@@H](O)CN(Cc1ccc(-c2ccccn2)cc1)NC(=O)[C@@H](NC(=O)OC)C(C)(C)C)C(C)(C)C [atazanavir] | – | – | fold increase in IC50 in the presence of N88S (susceptibility decreased) [2, 4]: 2.3 fold
CC(C)(C)NC(=O)[C@@H]1CN(Cc2cccnc2)CCN1C[C@@H](O)C[C@@H](Cc1ccccc1)C(=O)N[C@H]1c2ccccc2C[C@H]1O [indinavir] | 1.4 | – | –
Cc1cccc(C)c1OCC(=O)N[C@@H](Cc1ccccc1)[C@@H](O)C[C@H](Cc1ccccc1)NC(=O)[C@H](C(C)C)N1CCCNC1=O [lopinavir] | 3.3 | 7-9 FC | fold decrease in IC50 in the presence of N88S (susceptibility increased) [2, 4]: 1.7 fold
Cc1c(O)cccc1C(=O)N[C@@H](CSc1ccccc1)[C@H](O)CN1C[C@H]2CCCC[C@H]2C[C@H]1C(=O)NC(C)(C)C [nelfinavir] | 5.3 | 7-10 FC | fold increase in IC50 in the presence of N88S (susceptibility decreased) [2, 4]: 2.1 fold
CC(C)c1nc(CN(C)C(=O)N[C@H](C(=O)N[C@@H](Cc2ccccc2)C[C@H](O)[C@H](Cc2ccccc2)NC(=O)OCc2cncs2)C(C)C)cs1 [ritonavir] | 11 | 12-20 FC | fold decrease in IC50 in the presence of N88S (susceptibility increased) [2, 4]: 1.4 fold
CC(C)(C)NC(=O)[C@@H]1C[C@@H]2CCCC[C@@H]2CN1C[C@@H](O)[C@H](Cc1ccccc1)NC(=O)[C@H](CC(N)=O)NC(=O)c1ccc2ccccc2n1 [saquinavir] | 3.6 | – | increase in FC with L90M ([2]; I50V plus L90M clones vs I50V only clones): 1.8 fold
